{"source": "patent US20220087839A1", "about": "“Arterial Drug Eluting Device to Treat Diabetes With Targeted Delivery of Medication” (Becton, Dickinson and Company, priority 2020, published 2022)", "origin": "cited, not measured here", "key": {"glucagon [1]": {"test_system": "glucagon", "conditions": "intravenous infusion of 25 micrograms per hour, Type 1 diabetic"}, "human alpha-cells": {"test_system": "human alpha-cells", "conditions": "in vitro"}, "[2]": {"test_system": "beta and alpha cells of the pancreas"}, "glucagon [3]": {"test_system": "glucagon", "conditions": "intravenous infusion of 500 micrograms per hour, Type 1 diabetics"}, "[4]": {"conditions": "in vivo"}}}
{"compound": "CC[C@H](C)[C@H](NC(=O)[C@@H]1CCCN1C(=O)CNC(=O)[C@H](Cc1ccccc1)NC(=O)[C@H](CC(N)=O)NC(=O)[C@H](CC(N)=O)NC(=O)[C@H](CO)NC(=O)[C@H](CO)NC(=O)[C@H](Cc1c[nH]cn1)NC(=O)[C@@H](NC(=O)[C@H](CC(C)C)NC(=O)[C@H](Cc1ccccc1)NC(=O)[C@H](CC(N)=O)NC(=O)[C@H](C)NC(=O)[C@H](CC(C)C)NC(=O)[C@H](CCCNC(=N)N)NC(=O)[C@H](CCC(N)=O)NC(=O)[C@@H](NC(=O)[C@H](C)NC(=O)[C@@H]1CSSC[C@H](NC(=O)[C@@H](N)CCCCN)C(=O)N[C@@H](CC(N)=O)C(=O)N[C@@H]([C@@H](C)O)C(=O)N[C@@H](C)C(=O)N[C@@H]([C@@H](C)O)C(=O)N1)[C@@H](C)O)C(C)C)C(=O)N[C@@H](CC(C)C)C(=O)N1CCC[C@H]1C(=O)N1CCC[C@H]1C(=O)N[C@H](C(=O)N[C@@H](CC(N)=O)C(=O)N[C@H](C(=O)NCC(=O)N[C@@H](CO)C(=O)N[C@@H](CC(N)=O)C(=O)N[C@H](C(=O)N[C@@H](Cc1ccc(O)cc1)C(N)=O)[C@@H](C)O)C(C)C)[C@@H](C)O", "note": "[Pramlintide]", "values": [{"measurement": "suppression of glucagon spike from a standardized meal", "setting": "glucagon [1]", "value": "could suppress a glucagon spike from a standardized meal"}]}
{"compound": "leptin", "values": [{"measurement": "concentration that could suppress functional response to glucose", "setting": "human alpha-cells", "value": 0.625, "unit": "nmol/L"}]}
{"compound": "somatostatin", "values": [{"measurement": "effect on insulin and glucagon release", "setting": "[2]", "value": "inhibit both insulin and glucagon release"}, {"measurement": "suppression of glucagon spikes", "setting": "glucagon [3]", "value": "suppressed glucagon spikes"}, {"measurement": "half life", "setting": "[4]", "value": 3, "unit": "min"}]}
